The test system of test [1] is taste bud cells in porcine taste tissue. Kind of test: Multiphoton fluorescence intensity imaging of stimulated porcine taste tissue in flowing perfusing medium. Type of test: cell-based.
Method: Two papillae in close proximity to one another were loaded in this manner. The papillae were extracted from the larger piece of tissue and placed into the open chamber configuration (this work was done prior to that using the closed, gasketed chamber). The tissue was repeatedly stimulated with 20 mmol/L citric acid using the 1.0 mL/min flow rate and 1.0 mL sample loop, switched to the load position as time series data acquisition began. The imaging parameters were as follows: 400 Hz galvo scan rate, 2× zoom with 63× objective, 256×256 pixel image format, 2× frame average, 810 nm laser at 36%, and 0.5 Hz frame scan rate. The tissue was received at approximately 8:00 am, transported in oxygenated Tyrode's solution to the lab, loaded at approximately 10:00 am and imaged at approximately 11:00 am. Cells from two adjacent taste buds within the second papilla were imaged in xyzt mode at a depth of approximately 35 micrometers. […] The time series data were processed using the alignment tools development to address the tissue movement issues. […] However, the movement in this case was primarily in the x-y plane, and therefore the alignment algorithm provided sufficient alignment. […] However, the relative difference in emission and differences in slope due to photobleaching makes comparison between cells difficult. […]
The subject of test [2] is taste cells in porcine taste tissue (fungiform papilla taste bud). Kind of test: Multiphoton fluorescence lifetime imaging (MP-FLIM) of stimulated porcine taste tissue in static bath. Type of test: cell-based. The note with it: for response of taste cells to stimuli (calcium green lifetime imaging): bulk addition: 0.5 mL of 25-micromolar cycloheximide, then 0.5 mL of 1-millimolar sucralose, in deionized water. The text has this:
Fresh porcine taste tissue was procured in the prescribed manner from a local slaughterhouse and transported, after removal from the tongue, in chilled, oxygenated Tyrode's solution to the preparation laboratory. The tissue was affixed to a coated Petri dish and taste buds iontophoretically loaded (1.0 microampere) with calcium green dextran dye (1 mmol/L in DI water) via a drawn capillary pipette. Several taste pores were loaded on a papilla, with several papillae loaded overall, providing 3-5 taste buds loaded with dye. The tissue was mounted in a chamber and placed onto the microscope stage. The sample was imaged using the 63× water-dipping objective, 60% laser power at 810-nm excitation, in xzy mode (256×256 pixels) in order to image the taste bud and surface features at once in a longitudinal section. The photomultiplier tube gain on the FLIM system was set to 85% and the initial Leica settings (non-optimized) were used to capture FLIM images of the tissue over a 10-15 minute time course.
The same field of view was then imaged using the multiphoton lifetime imaging capability of the instrument. The optical conditions for lifetime mage collection are identical to intensity-based imaging, except that in photon counting mode the collection requires 30 seconds in this case for adequate signal to noise. The lifetimes were calculated by a double exponential fit of the decay curves and color-coded based on average lifetime per pixel. Red values are shorter lifetimes in this case. […] The shortest lifetime evident in this image is associated with the apical end of the taste cell directly below the pore. At rest, the average lifetime for all of the cells in the field of view is 1,634 picoseconds. The short lifetime component of the fit was set to 350 picoseconds, an estimate of the short lifetime component based on initial calcium calibrations in order to facilitate rapid fitting of the data for comparison.
The taste bud was exposed to several gross stimuli: cycloheximide and sucralose in deionized water. The purpose of this stimulus experiment was to determine if the bud would remain viable during the time course of a stimulus and if possible, to determine the presence of a gross response via lifetime imaging. The stimulants were applied via bulk addition to the chamber holding the tissue: 0.5 mL of 25-micromolar cycloheximide was first added after removal of 1 mL buffer; 0.5 mL of 1 -millimolar sucralose added after the cycloheximide stimulus and removal of additional 1 mL buffer. The MP-FLIM image data were collected at approximately 1-minute intervals using the same optical and exposure conditions used to generate the resting image described above. […]

Test [3] can be described thus: Calcium green-1 dextran dissociation constant from MP-FLIM lifetime and intensity data in CaEGTA calcium buffers. Format: binding. Here is the method: Calcium buffers (CaEGTA) and calcium green-1 dextran (CaGD) were purchased from Molecular Probes. The calcium buffers provide free Ca^+2 over a nanomolar to millimolar concentration range in a matrix closely matching the pH and ionic strength of the cytosol. The lifetimes and relative contributions of these bound and unbound decays are determined by fitting multi-exponential curves to the instrumental data. Buffer kit #2 (0-39 micromoles/L free Ca^+2) was used in this work to determine the response of calcium green dextran to low calcium concentrations. Initial work was done with Buffer kit #3, but the range of free Ca^+2 (0-1000 micromoles/L) was too high for the dye chosen. Calcium ion concentration is approximately 0.1 micromoles/L in resting cell's cytoplasm and in the increases to the micromolar range upon stimulus (Pollard, 2002).
Samples were analyzed in a random order during each experiment using the MP-FLIM system and a quartz solution cell. […] Each sample produced two full fields of view (256×256) where each image pixel contains a decay curve. As the calcium green dextran was present in bound and unbound forms, double exponential fits were performed using SPCImage (version 2.7.7238.0). The double exponential decays were calculated for each sample on the entire field of view, generating 65,536 values for each field of view. The average decay for each field of view was calculated as a sum of the per pixel lifetime values weighted by the amplitudes (contributions) of each lifetime to each pixel. Table 1 details the results for the calculation of the unbound dye fluorescence lifetime. The average τ1 from the measurements is 405.6 ps, with a sample standard variance of approximately 1.0 ps.
The balance of the calcium buffer data were analyzed using the SPCImage software under similar conditions as given in Table 1, with the exception that the short lifetime was fixed to 405.6 ps in the model parameters settings box. In addition, the zero Ca^+2 buffer average lifetimes were recalculated using the fixed short lifetime value. Due to instabilities in the software interface, the short lifetime was designated as τ2 in the fit parameters box. A second order polynomial fit of average lifetime in picoseconds versus calcium concentration in micromoles/L for a calcium concentration range from 0 to 0.602 micromoles/L yields the relationship: τavg=−3047 c^2+4472 c+601, R^2=0.9976; RMSE=30.9 ps.
A significant reported advantage of fluorescence lifetime measurements is that the dependence of fluorescence lifetime on calcium concentration is insensitive to dye concentration provided the dye itself is at low enough concentrations so as to not buffer the calcium ion in the cell or the cuvette. In order to test this property in the calcium green dextran system, additional sample sets were made up with 2.5-micromoles/L dye and 9.9-micromoles/L dye in the buffer solutions. The variations in lifetime data and intensity data with dye concentrations are given in FIG. 2 and FIG. 3, respectively. The lifetime data appears to be invariant with dye concentration, where the average standard deviation (variation in lifetime with dye concentration at each calcium concentration) for the lifetime data on the order or 25 ps. In contrast, the intensity variability is significant, where the intensity of the fluorescence is dependent upon the calcium concentration and the dye concentration.
Finally, calcium green-1 dissociation constants were calculated for the various dye concentrations using lifetime and intensity-based data sets.

For test [4] the following is noted: read-out: KD for calcium; cited from earlier work.

Like-named read-outs stand apart in the source and are kept apart here.

Turning to `O=C(O)CC(O)(CC(=O)O)C(=O)O` [citric acid], in test [1] (20 mmol/L citric acid, 1.0 mL/min flow, 1.0 mL sample loop, seven cells in field of view), the “baseline corrected average fluorescence intensity per cell (intracellular calcium response)” value is on record as “strong response to the stimulus in cell 1 with lower magnitude responses in other cells”. In addition, the “response to successive stimuli” value in test [1] (three successive 20 mmol/L citric acid stimuli, 5 minutes artificial saliva between stimuli) is recorded as “decrease in response to subsequent stimulus”.

`C[C@@H]1C[C@@H]([C@H](O)CC2CC(=O)NC(=O)C2)C(=O)[C@@H](C)C1` [cycloheximide]: the “response of taste cells to stimuli (calcium green lifetime imaging)” value in test [2] is “taste cells responded to the stimuli”.

Consider `OC[C@H]1O[C@H](O[C@]2(CCl)O[C@H](CCl)[C@@H](O)[C@@H]2O)[C@H](O)[C@@H](O)[C@H]1Cl` [sucralose], for which the “calcium concentration surrounding the taste cells during stimulus” value in test [2] (0.5 mL of 1-millimolar sucralose, bulk addition) was “decreased”. Besides, in test [2] (0.5 mL of 1-millimolar sucralose, bulk addition after cycloheximide stimulus, images at about 1-minute intervals), the “change of calcium green lifetime around the taste cells on stimulus” value is reported as “significant shortening of the calcium green lifetime around the taste cells”. Moreover, the “response of taste cells to stimuli (calcium green lifetime imaging)” value in test [2] was “taste cells responded to the stimuli”.

Turning to calcium green-1 dextran, the Kd in test [3] (dye concentration 2.5 micromoles/L, read-out: Kd, Intensity Data) was determined as 0.482 µM; in test [3] (dye concentration 2.5 micromoles/L, read-out: Kd, Lifetime Data) it was 0.342 µM; in test [3] (dye concentration 5.0 micromoles/L, read-out: Kd, Intensity Data) it was 0.52 µM; in test [3] (dye concentration 5.0 micromoles/L, read-out: Kd, Lifetime Data), 0.329 µM; in test [3] (dye concentration 9.9 micromoles/L, read-out: Kd, Intensity Data) it was 0.382 µM; in test [3] (dye concentration 9.9 micromoles/L, read-out: Kd, Lifetime Data) it was 0.289 µM. Besides, the Kd in test [4] was about 0.54 µM.

The Kd is a measure of binding affinity in units of concentration.

Source of the values: patent US7279338B2, “Methods for determining cellular response to stimuli” (Cargill, Incorporated, priority 2004, dated 2007).
